In article PMC8876959, “Comparative Evaluation of Radiochemical and Biological Properties of ^131I- and [^99mTc]Tc(CO)3-Labeled RGD Analogues Planned to Interact with the αvβ3 Integrin Expressed in Glioblastoma” (Pharmaceuticals, 2022) one finds Radiochemical purity in human serum up to 24 h data, which are given here for one compound.

Non-standard residues stand in square brackets, D forms with d. Residues, ends and D or L forms follow the SMILES beside them. Tyr(3,5-I2) = N[C@@H](Cc1cc(I)c(O)c(I)c1)C(=O)O

`CC(C)[C@H](NC(=O)[C@H](Cc1cc(I)c(O)c(I)c1)NC(=O)[C@H](CC(=O)O)NC(=O)CNC(=O)[C@H](CCCNC(=N)N)NC(=O)CN)C(=O)O` [[^131I]I-GRGDYV] (H-GRGD[Tyr(3,5-I2)]V-OH) yielded a Radiochemical purity in human serum up to 24 h above 94%.
